Measured values from patent US20230312652A1, “NOVEL PEPTIDES AND USES THEREOF” (Aarhus Universitet, priority 2020, published 2023).
Where a SMILES comes first, the peptide text is derived from it.

Assays:
CREB [1] = experiment: CREB activation in GRN+/- cortical neurons, western blotting; type: cell-based, mouse; settings: 1 uM, 20 minutes
Method: In this study, it was examined whether peptide P1 could increase phosphorylation of CREB (ser133) similar to wild-type neurons. To study the activation of CREB, cortical neurons were isolated from GRN+/−p0 […] mice and seeded in a density of 500,000 per well. After 7 days in vitro the neurons were stimulated with peptide P1 at 1 uM in neurobasal A media at 37° C. and 5% CO2 and incubated for 20 minutes. Following, the neurons were lysed in lysis buffer containing DTT and cOmplete cocktail protease inhibitor and subsequently sonicated to disrupt the nuclear membrane. The phosphorylation of CREB on serine 133 was subsequently validated by western blotting. The levels of phosphorylated CREB were normalized to the corresponding beta-actin levels. Student's t-test was used for statistical analysis.

CREB [2] = experiment: CREB activation (phosphorylation on serine 133) in wild-type cortical neurons, western blotting; type: cell-based, mouse; settings: 20 minutes, 7 days in vitro
Method: (§1) To assess the ability of peptides P1, P2 and P6, respectively, to activate transcription factor CREB, cortical neurons were isolated from p0 wild-type mice and seeded in a density of 500.000 per well. After 7 days in vitro the neurons were stimulated with the different peptide variants at 1 uM in neurobasal A media and incubated at 37° C. and 5% C02 for 20 minutes. Hereafter, the neurons were lysed in lysis buffer containing DTT and cOmplete cocktail protease inhibitor and subsequently sonicated to disrupt the nuclear membrane. The phosphorylation of CREB on serine 133 was validated by western blotting normalized to beta-actin. As control, cells were stimulated with a scrambled peptide (Scr). Student's t-test was used for statistical analysis.
as §1, with “The” for “To assess the”, “peptide P1” for “peptides P1, P2”, “a linear peptide analog of P1 with acetylated N- and amidated C-terminals (referred to as LP1)” for “P6, respectively,”, “CREB was assessed. Cortical” for “CREB, cortical”, “20 nM” for “1 uM”, “CO2” for “C02”

[3] = tested on: AMPK (T172) and Raptor (S792); experiment: Phosphorylation of AMPK (T172) and Raptor (S792) in cortical neurons, western blotting; type: cell-based, mouse; settings: 1 uM, 20 minutes
Method: To assess the ability of peptide P1 to activate AMPK and subsequently inactivate the mTOR complex, mouse cortical neurons were isolated from p0 wild-type mice and seeded in a density of 250,000 per well in a 12-well tray. After 7 days in vitro the neurons were stimulated with P1 in neurobasal A media and incubated at 37° C. and 5% CO2 for 20 minutes. Hereafter, the neurons were lysed in lysis buffer containing DTT and cOmplete cocktail protease inhibitor. The phosphorylation of AMPK (T172) and Raptor (S792) was validated by western blotting normalized to beta-actin.

ST HDH cells (Q111, Q7) = experiment: Active mitochondrial mass in ST HDH cells, MitoTracker; type: cell-based, mouse
Method: The impact on mitochondrial function was assessed in ST HDH cells (mouse striatal cell line) expressing either HTT with a 111 polyglutamine stretch (Q111) or a 7 polyglutamine stretch (Q7), thereby serving as a model of HD. The cells were stimulated with P1 at timepoints between 0-24 hours and mitochondrial mass was subsequently measured using MitoTracker—a probe which binds to active mitochondria. Signal was measured in plate-reader at ex/em […].

[4] = Mouse brain homogenate binding; type: in vitro ADME; settings: 2 μM
Method: Mouse brain homogenate was incubated with 2 μM of P1 or 7-Ethoxycoumarin (positive control of degradation). Enzymatic reactions were stopped at timepoints between 0-240 min and samples analysed by LCMS. For test with protease inhibitors, brain homogenate was pre-incubated for 30 minutes with protease inhibitors prior to incubation with P1. For brain homogenate binding, 2 μM of P1 or propranolol (positive control) were added to mouse brain homogenate and incubated at 37° C. for 30 minutes. To prepare the protein-free samples (F samples) to be used for unbound determination, an aliquot of the pre-incubated matrix containing test compound or control compound was transferred to ultracentrifuge tubes and subjected to ultracentrifugation at 37° C., 35000 rpm for 4 hrs. In parallel, brain homogenate was incubated for 4.5 hrs to determine total levels after incubation.

hERG potassium channels = biological target: T1, hERG potassium channels (Homo sapiens, UniProt Q12809); experiment: hERG inhibition, manual patch-clamp in CHO cell line; type: cell-based; settings: 0.1-30 uM, room temperature
T1 construct: expressed in transfected cells
T1 sequence (Q12809 whole entry): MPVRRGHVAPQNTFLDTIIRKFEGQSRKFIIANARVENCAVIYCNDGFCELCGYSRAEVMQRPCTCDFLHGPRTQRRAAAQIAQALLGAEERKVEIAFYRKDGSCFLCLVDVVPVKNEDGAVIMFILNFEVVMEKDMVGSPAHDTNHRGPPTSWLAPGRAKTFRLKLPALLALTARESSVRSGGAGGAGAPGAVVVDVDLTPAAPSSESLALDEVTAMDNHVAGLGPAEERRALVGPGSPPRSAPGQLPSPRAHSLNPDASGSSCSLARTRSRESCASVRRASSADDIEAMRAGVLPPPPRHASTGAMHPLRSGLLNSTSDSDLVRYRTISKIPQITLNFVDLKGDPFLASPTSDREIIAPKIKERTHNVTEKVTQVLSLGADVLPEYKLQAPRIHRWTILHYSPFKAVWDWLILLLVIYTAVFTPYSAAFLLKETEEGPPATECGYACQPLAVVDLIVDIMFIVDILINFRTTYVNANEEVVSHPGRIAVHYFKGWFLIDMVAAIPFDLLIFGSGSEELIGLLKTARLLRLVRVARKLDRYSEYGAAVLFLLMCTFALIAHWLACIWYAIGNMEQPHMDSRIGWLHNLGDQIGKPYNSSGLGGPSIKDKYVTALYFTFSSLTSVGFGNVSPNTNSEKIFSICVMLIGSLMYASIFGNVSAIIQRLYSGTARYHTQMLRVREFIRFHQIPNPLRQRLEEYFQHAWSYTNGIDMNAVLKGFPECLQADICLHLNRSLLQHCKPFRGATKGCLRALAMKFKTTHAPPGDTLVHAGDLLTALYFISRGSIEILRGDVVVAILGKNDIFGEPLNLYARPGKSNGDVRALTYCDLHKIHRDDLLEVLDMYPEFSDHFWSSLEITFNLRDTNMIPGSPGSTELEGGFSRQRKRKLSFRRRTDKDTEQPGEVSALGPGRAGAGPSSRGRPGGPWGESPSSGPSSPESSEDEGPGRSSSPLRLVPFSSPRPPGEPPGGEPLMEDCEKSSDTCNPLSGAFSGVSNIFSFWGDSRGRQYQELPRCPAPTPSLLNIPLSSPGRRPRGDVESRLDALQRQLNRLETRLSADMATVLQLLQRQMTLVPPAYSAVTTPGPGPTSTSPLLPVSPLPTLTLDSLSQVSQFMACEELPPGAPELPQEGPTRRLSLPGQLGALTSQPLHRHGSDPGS
Method: P1 (0.1-30 uM) was evaluated in vitro in a concentration-response (relationship of the effect on electric current passing through hERG (human ether-à-go-go-related gene) potassium channels (a surrogate for IKr, the rapidly activating, delayed rectifier cardiac potassium current) stably expressed in a CHO cell line using a manual patch-clamp technique.
The hERG current was recorded at room temperature using whole-cell patch-clamp techniques. Output signals from the patch-clamp amplifier were digitized and low-pass filtered at 2.9 kHz. The recording was controlled with Patchmaster Pro software. The recording chamber with cells seeded was mounted on an inverted microscope stage. A cell in the recording chamber was randomly picked up for testing. The cell was continuously perfused from the perfusion system. A micropipette filled with ICS was used as recording electrode in the manual patch-clamp study. The micropipette was prepared on the day of the patchclamp experiment using glass capillaries (GC150TF-10, Harvard Apparatus Co., UK). From the holding potential of −80 mV, the voltage was increased to +60 mV for 850 ms to open the hERG channels. After that, the voltage was decreased to −50 mV for 1275 ms, causing a “rebound” or tail current, the peak tail current was measured and collected for data analysis. Finally, the voltage was decreased to the holding potential (−80 mV). […]

[5] = Plasma binding, human plasma, ultracentrifugation; type: in vitro ADME
Method: For plasma binding, 2 μM P1 or Warfarin (positive control) were added to mouse or human plasma. After 30 minutes incubation at 37° C., samples where ultracentrifuged for 4 hours to generate protein-free samples for LCMS analysis. In parallel, plasma was incubated for 4.5 h to determine total levels after incubation. Plasma binding was calculated as % Bound=100*(1−F/T4.5), where F is concentration of free ligand and T4.5 is the concentration of total ligand after incubation.

## CSCC[C@@H]1NC(=O)[C@H](C(C)C)NC(=O)[C@H](CC(=O)O)NC(=O)[C@H](CCC(=O)O)NC(=O)[C@H](CCC(=O)O)NC(=O)[C@H](Cc2c[nH]cn2)NC(=O)[C@H](CCC(=O)O)NC(=O)[C@H](C(C)C)NC(=O)[C@@H]2CCCN2C(=O)[C@H](CCC(=O)O)NC(=O)[C@H]([C@@H](C)O)NC1=O [Peptide P1, [MTEPVEHEEDV]] (cyclo(MTEPVEHEEDV))
CREB [1]
  phosphorylation of CREB (S133): able to activate CREB
CREB [2]; 20 nM
  activation of CREB (phosphorylation on serine 133) compared to scrambled peptide: activated CREB
CREB [2]; 1 uM
  activation of CREB (phosphorylation on serine 133) compared to scrambled peptide: markedly activated CREB
[3]
  AMPK phosphorylation on T172: activates AMPK
  Raptor phosphorylation on S792: inactivates Raptor
ST HDH cells (Q111, Q7); Q7 cells
  mitochondrial mass: mitochondrial mass is increased
ST HDH cells (Q111, Q7); Q111 cells, 24 hours
  mitochondrial mass: increased above the baseline from the healthy cell line
[4]
  brain homogenate binding: less than 20%
hERG potassium channels
  effect on hERG current: no effect on hERG current
[5]; 2 μM
  plasma binding: 20%
[5]; read-out: compound unbound in plasma
  fraction unbound at 30 min, 2 μM: > 0.75
